Results as given in ChEMBL document CHEMBL5653631, “A Potent and Selective ULK1 Inhibitor Suppresses Autophagy and Sensitizes Cancer Cells to Nutrient Stress” (iScience, 2018).

Tests used:
[1] = molecular target: Serine/threonine-protein kinase SIK3 (Homo sapiens) (UniProt Q9Y2K2); test: Inhibition of human recombinant QSK at 40 nM related to control ULK1
[2] = molecular target: Serine/threonine-protein kinase/endoribonuclease IRE1 (Homo sapiens) (UniProt O75460); test: Inhibition of human recombinant IRE1 at 500 nM related to control ULK1
[3] = molecular target: Serine/threonine-protein kinase 33 (Homo sapiens) (UniProt Q9BYT3); test: Inhibition of human recombinant STK33 at 500 nM in presence of ATP by radiometric assay relative to control
Serine/threonine-protein kinase 33 (Homo sapiens), sequence (Q9BYT3 whole entry, looked up): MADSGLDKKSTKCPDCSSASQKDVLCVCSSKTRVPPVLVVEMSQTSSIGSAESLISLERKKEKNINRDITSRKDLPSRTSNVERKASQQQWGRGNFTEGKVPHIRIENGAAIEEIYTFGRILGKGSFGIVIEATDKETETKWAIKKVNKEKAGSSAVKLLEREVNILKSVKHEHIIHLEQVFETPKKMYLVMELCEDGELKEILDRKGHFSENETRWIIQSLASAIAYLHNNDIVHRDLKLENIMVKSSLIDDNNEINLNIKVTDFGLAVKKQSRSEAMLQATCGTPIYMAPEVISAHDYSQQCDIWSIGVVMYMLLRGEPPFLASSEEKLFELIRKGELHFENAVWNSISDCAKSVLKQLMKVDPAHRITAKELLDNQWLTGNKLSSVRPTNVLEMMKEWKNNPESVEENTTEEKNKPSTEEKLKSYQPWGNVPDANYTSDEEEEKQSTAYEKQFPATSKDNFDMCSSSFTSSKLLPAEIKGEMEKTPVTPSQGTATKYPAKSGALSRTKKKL

[4] = molecular target: T1, Tyrosine-protein kinase receptor TYRO3 (Homo sapiens) (UniProt Q06418); test: Inhibition of human recombinant TYRO3 at 500 nM in presence of ATP by radiometric assay relative to control
T1 sequence (whole entry): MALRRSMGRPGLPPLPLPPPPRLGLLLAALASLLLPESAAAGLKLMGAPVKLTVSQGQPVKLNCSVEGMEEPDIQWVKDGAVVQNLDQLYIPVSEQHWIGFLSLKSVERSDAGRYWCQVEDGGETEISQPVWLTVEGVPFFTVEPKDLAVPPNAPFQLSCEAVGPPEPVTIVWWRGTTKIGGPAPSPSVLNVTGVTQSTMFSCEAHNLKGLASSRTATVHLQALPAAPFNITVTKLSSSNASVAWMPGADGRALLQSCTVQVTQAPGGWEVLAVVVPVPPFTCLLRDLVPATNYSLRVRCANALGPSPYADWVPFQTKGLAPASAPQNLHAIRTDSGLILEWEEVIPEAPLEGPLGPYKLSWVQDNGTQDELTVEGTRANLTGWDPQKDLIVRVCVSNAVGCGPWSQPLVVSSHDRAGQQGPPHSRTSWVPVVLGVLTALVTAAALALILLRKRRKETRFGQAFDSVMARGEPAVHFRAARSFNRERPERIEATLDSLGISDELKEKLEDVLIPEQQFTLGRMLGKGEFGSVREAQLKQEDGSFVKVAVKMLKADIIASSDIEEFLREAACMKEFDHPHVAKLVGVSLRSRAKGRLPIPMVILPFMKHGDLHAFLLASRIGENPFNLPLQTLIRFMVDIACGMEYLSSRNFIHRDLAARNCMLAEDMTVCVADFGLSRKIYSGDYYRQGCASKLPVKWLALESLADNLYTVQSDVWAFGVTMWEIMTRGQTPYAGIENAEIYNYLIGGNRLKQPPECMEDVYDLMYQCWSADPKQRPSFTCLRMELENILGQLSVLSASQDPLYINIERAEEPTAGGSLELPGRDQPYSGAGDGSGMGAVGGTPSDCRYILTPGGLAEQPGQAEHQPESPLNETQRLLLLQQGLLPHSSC

[5] = molecular target: Angiopoietin-1 receptor (Homo sapiens) (UniProt Q02763); test: Inhibition of human recombinant Tie2 at 500 nM in presence of ATP by radiometric assay relative to control
[6] = molecular target: Non-receptor tyrosine-protein kinase TYK2 (Homo sapiens) (UniProt P29597); test: Inhibition of human recombinant TYK2 at 500 nM related to control ULK1
[7] = molecular target: Fibroblast growth factor receptor 1 (Homo sapiens) (UniProt P11362); test: Inhibition of human recombinant FGFR1 at 500 nM in presence of ATP by radiometric assay relative to control
[8] = molecular target: Mitogen-activated protein kinase kinase kinase 9 (Homo sapiens) (UniProt P80192); test: Inhibition of human recombinant MLK1 at 500 nM in presence of ATP by radiometric assay relative to control
Mitogen-activated protein kinase kinase kinase 9 (Homo sapiens), sequence (P80192 whole entry, looked up): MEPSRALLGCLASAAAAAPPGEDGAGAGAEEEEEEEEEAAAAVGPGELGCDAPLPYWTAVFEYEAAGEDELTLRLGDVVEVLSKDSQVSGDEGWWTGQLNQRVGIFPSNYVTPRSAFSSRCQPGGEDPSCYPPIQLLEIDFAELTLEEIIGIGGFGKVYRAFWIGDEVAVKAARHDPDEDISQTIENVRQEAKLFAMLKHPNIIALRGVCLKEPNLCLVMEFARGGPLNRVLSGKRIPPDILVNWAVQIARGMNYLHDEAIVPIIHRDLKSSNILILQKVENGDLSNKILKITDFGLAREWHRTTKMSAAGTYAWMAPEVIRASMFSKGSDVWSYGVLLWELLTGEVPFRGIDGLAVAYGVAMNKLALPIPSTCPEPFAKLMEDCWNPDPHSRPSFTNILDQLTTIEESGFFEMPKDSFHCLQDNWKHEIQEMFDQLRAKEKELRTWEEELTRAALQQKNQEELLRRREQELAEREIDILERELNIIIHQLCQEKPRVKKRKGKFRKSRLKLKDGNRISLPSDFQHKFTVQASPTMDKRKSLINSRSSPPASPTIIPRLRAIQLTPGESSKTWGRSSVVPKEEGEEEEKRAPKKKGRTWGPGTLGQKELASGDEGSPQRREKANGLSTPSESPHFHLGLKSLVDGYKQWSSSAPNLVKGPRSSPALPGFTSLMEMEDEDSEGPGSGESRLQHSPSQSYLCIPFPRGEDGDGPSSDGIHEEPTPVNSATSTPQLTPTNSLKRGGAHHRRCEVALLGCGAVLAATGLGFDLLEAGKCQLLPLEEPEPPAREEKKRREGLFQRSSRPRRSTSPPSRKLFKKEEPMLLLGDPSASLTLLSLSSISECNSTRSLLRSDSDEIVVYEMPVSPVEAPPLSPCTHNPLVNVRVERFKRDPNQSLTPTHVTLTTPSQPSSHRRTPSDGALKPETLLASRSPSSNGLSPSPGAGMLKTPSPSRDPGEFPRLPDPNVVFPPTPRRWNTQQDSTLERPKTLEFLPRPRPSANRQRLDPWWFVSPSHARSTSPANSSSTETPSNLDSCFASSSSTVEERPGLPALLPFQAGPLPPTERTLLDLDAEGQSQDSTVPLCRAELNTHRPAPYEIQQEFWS

[9] = molecular target: T2, Testis-specific serine/threonine-protein kinase 2 (Homo sapiens) (UniProt Q96PF2); test: Inhibition of human recombinant TSSK2 at 15 nM in presence of ATP by radiometric assay relative to control
T2 sequence (whole entry): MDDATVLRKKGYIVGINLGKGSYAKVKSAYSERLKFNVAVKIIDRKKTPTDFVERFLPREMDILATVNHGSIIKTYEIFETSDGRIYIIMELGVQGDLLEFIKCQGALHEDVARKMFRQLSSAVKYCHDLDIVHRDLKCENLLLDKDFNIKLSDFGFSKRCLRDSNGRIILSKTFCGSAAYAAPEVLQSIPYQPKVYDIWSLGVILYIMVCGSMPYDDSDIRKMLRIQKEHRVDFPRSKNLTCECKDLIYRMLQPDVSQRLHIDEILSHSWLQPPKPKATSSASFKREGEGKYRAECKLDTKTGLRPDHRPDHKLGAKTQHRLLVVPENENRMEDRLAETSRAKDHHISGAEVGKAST

[10] = molecular target: Proto-oncogene tyrosine-protein kinase receptor Ret (Homo sapiens) (UniProt P07949); test: Inhibition of human recombinant RET at 15 nM in presence of ATP by radiometric assay relative to control
Proto-oncogene tyrosine-protein kinase receptor Ret (Homo sapiens), sequence (P07949 whole entry): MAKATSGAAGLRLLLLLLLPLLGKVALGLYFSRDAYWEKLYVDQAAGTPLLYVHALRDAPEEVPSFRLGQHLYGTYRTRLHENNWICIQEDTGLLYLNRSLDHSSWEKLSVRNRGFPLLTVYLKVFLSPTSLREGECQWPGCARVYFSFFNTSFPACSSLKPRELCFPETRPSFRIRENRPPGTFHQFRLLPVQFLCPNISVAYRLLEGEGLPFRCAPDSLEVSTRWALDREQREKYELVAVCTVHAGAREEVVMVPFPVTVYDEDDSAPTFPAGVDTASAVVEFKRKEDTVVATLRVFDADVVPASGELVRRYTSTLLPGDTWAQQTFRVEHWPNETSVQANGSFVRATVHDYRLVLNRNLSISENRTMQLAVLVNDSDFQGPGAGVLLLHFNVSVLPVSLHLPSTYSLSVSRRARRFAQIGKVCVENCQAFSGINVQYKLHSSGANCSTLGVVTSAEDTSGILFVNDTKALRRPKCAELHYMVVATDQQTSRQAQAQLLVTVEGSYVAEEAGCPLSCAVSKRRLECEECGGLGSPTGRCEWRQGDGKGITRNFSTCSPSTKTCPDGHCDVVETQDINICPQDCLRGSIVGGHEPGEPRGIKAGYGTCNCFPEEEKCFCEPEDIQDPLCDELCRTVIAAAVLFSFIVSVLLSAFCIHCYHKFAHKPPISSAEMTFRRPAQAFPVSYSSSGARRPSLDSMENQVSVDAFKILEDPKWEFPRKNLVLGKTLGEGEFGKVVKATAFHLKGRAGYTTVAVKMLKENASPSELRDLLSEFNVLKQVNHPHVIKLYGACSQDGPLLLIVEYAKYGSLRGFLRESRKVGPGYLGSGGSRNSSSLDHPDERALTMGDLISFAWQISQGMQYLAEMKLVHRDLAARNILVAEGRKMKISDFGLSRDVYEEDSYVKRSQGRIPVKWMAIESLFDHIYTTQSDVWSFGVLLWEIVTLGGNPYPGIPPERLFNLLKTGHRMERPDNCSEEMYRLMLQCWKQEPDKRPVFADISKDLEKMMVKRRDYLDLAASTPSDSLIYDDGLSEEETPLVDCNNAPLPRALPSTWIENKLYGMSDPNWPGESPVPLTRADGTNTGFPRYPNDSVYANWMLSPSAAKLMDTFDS

[11] = molecular target: T3, Mitogen-activated protein kinase 13 (Homo sapiens) (UniProt O15264); test: Inhibition of human recombinant p38delta at 15 nM in presence of ATP by radiometric assay relative to control
T3 sequence (whole entry): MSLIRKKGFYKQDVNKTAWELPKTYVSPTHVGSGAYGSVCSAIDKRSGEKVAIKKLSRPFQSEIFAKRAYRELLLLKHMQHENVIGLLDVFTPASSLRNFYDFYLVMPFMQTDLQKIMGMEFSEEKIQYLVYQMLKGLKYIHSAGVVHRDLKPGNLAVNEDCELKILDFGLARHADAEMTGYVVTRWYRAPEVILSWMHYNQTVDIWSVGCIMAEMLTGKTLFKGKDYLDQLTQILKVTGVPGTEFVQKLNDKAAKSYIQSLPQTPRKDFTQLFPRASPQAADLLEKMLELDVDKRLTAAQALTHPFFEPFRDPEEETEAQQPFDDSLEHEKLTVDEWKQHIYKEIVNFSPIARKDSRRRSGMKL

[12] = molecular target: MAP kinase-interacting serine/threonine-protein kinase 2 (Homo sapiens, UniProt Q9HBH9); test: Inhibition of human recombinant MNK2 at 15 nM related to control ULK1
MAP kinase-interacting serine/threonine-protein kinase 2, sequence (Q9HBH9 whole entry, looked up): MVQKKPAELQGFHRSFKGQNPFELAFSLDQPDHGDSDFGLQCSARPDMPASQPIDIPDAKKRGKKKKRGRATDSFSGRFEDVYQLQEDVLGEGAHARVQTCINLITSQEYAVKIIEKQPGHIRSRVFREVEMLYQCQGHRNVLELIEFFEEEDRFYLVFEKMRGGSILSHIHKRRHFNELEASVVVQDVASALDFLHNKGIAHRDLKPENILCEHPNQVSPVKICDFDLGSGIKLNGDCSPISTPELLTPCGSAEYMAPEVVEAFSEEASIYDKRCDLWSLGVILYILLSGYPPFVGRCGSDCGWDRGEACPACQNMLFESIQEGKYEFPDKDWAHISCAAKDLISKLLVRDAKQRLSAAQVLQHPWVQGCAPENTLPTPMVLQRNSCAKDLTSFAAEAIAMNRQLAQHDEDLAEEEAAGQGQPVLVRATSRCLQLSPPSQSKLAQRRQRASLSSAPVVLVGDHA

[13] = molecular target: Serine/threonine-protein kinase PLK2 (Homo sapiens) (UniProt Q9NYY3); test: Inhibition of human recombinant PLK2 at 15 nM in presence of ATP by radiometric assay relative to control
[14] = molecular target: Dual specificity mitogen-activated protein kinase kinase 1 (Homo sapiens) (UniProt Q02750); test: Inhibition of human recombinant MAP2K1 at 15 nM in presence of ATP by radiometric assay relative to control
[15] = molecular target: Ribosomal protein S6 kinase alpha-4 (Homo sapiens) (UniProt O75676); test: Inhibition of human recombinant MSK2 at 15 nM in presence of ATP by radiometric assay relative to control
[16] = molecular target: Tyrosine-protein kinase Fes/Fps (Homo sapiens) (UniProt P07332); test: Inhibition of human recombinant FES at 15 nM in presence of ATP by radiometric assay relative to control
Tyrosine-protein kinase Fes/Fps (Homo sapiens), sequence (P07332 whole entry): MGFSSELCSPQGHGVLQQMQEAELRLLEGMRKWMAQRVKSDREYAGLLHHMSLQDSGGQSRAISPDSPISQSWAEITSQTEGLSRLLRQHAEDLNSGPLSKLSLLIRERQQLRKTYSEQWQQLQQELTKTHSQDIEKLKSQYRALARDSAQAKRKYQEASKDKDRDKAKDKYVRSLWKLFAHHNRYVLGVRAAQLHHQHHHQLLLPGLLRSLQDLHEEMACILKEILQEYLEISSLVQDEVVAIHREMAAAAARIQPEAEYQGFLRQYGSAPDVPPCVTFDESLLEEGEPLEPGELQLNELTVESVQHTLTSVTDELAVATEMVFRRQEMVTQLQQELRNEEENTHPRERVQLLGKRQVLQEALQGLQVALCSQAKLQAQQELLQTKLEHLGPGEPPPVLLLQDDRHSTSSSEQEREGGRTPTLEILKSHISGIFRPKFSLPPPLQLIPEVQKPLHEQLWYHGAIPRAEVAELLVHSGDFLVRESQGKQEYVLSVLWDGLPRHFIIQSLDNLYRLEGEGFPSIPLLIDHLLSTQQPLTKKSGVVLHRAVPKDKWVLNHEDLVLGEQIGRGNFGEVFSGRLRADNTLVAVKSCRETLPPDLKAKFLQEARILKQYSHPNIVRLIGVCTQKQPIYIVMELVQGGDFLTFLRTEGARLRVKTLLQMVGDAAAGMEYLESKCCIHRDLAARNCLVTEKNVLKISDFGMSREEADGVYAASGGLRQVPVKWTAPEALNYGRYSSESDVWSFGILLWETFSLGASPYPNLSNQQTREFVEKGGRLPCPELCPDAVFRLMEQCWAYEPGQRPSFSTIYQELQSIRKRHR

[17] = molecular target: Serine/threonine-protein kinase N1 (Homo sapiens) (UniProt Q16512); test: Inhibition of human recombinant PKN1 at 15 nM related to control ULK1
Serine/threonine-protein kinase N1 (Homo sapiens), sequence (Q16512 2-942 limits assumed): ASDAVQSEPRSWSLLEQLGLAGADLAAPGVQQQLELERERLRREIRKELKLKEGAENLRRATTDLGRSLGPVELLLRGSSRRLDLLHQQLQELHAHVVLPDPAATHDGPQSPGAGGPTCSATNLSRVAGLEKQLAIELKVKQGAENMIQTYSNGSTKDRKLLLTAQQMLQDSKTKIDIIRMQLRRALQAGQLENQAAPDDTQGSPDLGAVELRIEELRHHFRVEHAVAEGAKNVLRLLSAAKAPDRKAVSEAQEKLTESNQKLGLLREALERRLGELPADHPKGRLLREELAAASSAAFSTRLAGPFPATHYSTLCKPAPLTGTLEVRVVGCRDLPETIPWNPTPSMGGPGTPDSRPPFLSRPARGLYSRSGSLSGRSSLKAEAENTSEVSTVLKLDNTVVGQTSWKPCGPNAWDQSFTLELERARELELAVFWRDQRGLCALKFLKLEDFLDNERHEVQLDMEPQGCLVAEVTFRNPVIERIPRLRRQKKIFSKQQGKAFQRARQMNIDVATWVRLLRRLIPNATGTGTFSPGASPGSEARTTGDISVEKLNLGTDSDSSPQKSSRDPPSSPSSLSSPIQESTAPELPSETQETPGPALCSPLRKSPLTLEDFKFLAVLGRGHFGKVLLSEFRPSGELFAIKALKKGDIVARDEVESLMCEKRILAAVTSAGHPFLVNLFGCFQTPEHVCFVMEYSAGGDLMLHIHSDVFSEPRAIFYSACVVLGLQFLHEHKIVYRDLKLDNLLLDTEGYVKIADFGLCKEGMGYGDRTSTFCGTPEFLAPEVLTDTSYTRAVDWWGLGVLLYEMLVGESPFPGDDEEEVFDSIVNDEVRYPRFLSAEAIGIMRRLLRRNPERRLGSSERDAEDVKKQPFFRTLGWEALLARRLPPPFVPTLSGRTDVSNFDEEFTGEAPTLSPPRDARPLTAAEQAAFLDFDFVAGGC

Question: With `O=C(N[C@@H](C1CC1)C(F)(F)F)c1cc(-c2cnn3cc(-c4ccc(F)cc4)cnc23)cs1` as the compound, how does the fold change (FC) [1] read?
Answer: 0.81

Question: For `CNC(=O)c1ccccc1Oc1nc(Nc2cc(OC)c(OC)c(OC)c2)ncc1Br`, which fold change (FC) [2] is on record?
Answer: 0

Question: And the inhibition [3]?
Answer: 4%

Question: And the inhibition [4]?
Answer: 10%

Question: And the inhibition [5]?
Answer: 23%

Question: What about the fold change (FC) [6] of the same compound?
Answer: 1.05

Question: What about the inhibition [7] of the same compound?
Answer: 35%

Question: And the inhibition [8]?
Answer: 87%

Question: With `CC(C)[C@H](NC(=O)c1cc(-c2cnn3cc(-c4ccc(OCCN5CCCCC5)cc4)cnc23)cs1)C(F)(F)F` as the compound, how does the inhibition [9] read?
Answer: 1%

Question: And the inhibition [10]?
Answer: 14%

Question: And the inhibition [11]?
Answer: 6%

Question: And the fold change (FC) [12]?
Answer: 0.3

Question: And the inhibition [13]?
Answer: 4%

Question: And the inhibition [14]?
Answer: 7%

Question: And the inhibition [15]?
Answer: 0%

Question: What about the inhibition [16] of the same compound?
Answer: 0%

Question: And the fold change (FC) [17]?
Answer: 0
